PMC5515969, “Effects of 31 FDA approved small-molecule kinase inhibitors on isolated rat liver mitochondria” (Archives of Toxicology, 2016)
Like-named read-outs stand apart in the source and are kept apart here.

How the values were obtained:
[1] = system: RCC I; assay: RCC I activity in submitochondrial particles; type: biochemical, rat; details: 15 min, DMSO-treated = 100
In short: (§1)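 Inhibitors preincubated 15 min with submitochondrial particles (1 mg/ml) before activity readout. RCC I (rotenone-sensitive fraction) and I/V: A340, and RCC II: A600, each every 1 min for 6 min; RCC III/IV: A550 every 10 s for 2 min. Activities relative to DMSO control set as 1.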

[2] = system: RCC III; assay: RCC III activity in submitochondrial particles; type: biochemical, rat; details: 15 min, DMSO-treated = 100
In short: as §1

[3] = system: RCC IV; assay: RCC IV activity in submitochondrial particles; type: biochemical, rat; details: 15 min, DMSO-treated = 100
In short: as §1

[4] = system: RCC V; assay: RCC V activity in submitochondrial particles; type: biochemical, rat; details: 10-fold Cmax; 15 min; DMSO-treated = 100
In short: as §1

[5] = system: RCC I–V; assay: Activities of RCC I–V, overall statements; type: biochemical, rat; details: submitochondrial particles
Procedure: KIs were incubated with submitochondrial particles (1 mg/ml) for 15 min and then RCC I–V activities measured. […] The activities of DMSO-treated samples (controls) were set as 1. […] The difference between the activity from rotenone-containing buffer and rotenone-absent buffer was considered as RCC I activity. […] For measuring RCC I/V and II activity, the changes in absorbance at 340 and 600 nm, respectively, were determined every 1 min for 6 min. For measuring RCC III and RCC IV, the changes in absorbance at 550 nm were measured every 10 s for 2 min.

[6] = human therapeutic Cmax at FDA recommended dosages; ref product labeling and drug approval packages at the official FDA website; cited from earlier work
[7] = cited from earlier work
[8] = system: isolated rat liver mitochondria; assay: Mitochondrial oxygen consumption (glutamate/malate or succinate driven, state 4 and state 3); type: biochemical; details: for Glutamate/malate driven respiration State 3 / Glutamate/malate driven respiration State 4 / Succinate-driven respiration State 3 / Succinate-driven respiration State 4: oxygen consumption, DMSO-treated = 1
In short: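 Rat liver mitochondria (1 mg/ml protein) exposed 5 min to kinase inhibitors in 0.1% DMSO, then O2 consumption measured by Clark-type electrode with glutamate/malate or succinate (state 4), ADP added after 3 min (state 3). Rates normalized to 0.1% DMSO controls set to 1.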

[9] = system: isolated rat liver mitochondria; assay: Mitochondrial inner membrane potential (MMP), Rhodamine 123; type: biochemical
Text: Fig. 3 KI effects on mitochondrial inner membrane potential (MMP). […] In a, c, data are means and standard derivations from three separate experiments. *p < 0.05 as compared to DMSO-treated samples at the end of experiments. In b, data are means of two independent experiments

[10] = system: isolated rat liver mitochondria; assay: Mitochondrial swelling (absorbance at 535 nm); type: biochemical
[11] = system: isolated rat liver mitochondria; assay: Mitochondrial toxicity, any endpoint, intact mitochondria and submitochondrial particles; type: biochemical; details: any endpoint
Procedure: Rats were anesthetized by an intraperitoneal injection of Nembutal and the liver perfused with PBS to remove the blood. The liver was then cut into small pieces and homogenized using a Dounce type homogenizer in the ice-cold isolation buffer (IB) containing 200 mM sucrose, 10 mM Tris-MOPS, 1 mM EGTA (pH 7.4). The sample was then centrifuged at 600g for 10 min. The supernatant was further centrifuged at 7500g for 10 min, and the pellets was washed once with the IB and centrifuged again at 7500g for 10 min to collect mitochondria. […] Before drug treatment, the protein concentration was adjusted to 1 mg/ml using appropriate buffer. […] Briefly, mitochondrial and cytosolic fractions from four different preparations using four rats were diluted using the Laemmli protein loading buffer and subject to SDS-PAGE with 4–20% gradient gels. The proteins were blotted to PVDF membranes and detected using antibodies against GAPDH, ATP5A, UQCRC2, SDHB, and NDUFB8.
The aliquoted stock solutions were kept for less than one month and each tube was used only once. The KIs were added to the mitochondria at 1:1000 dilutions. […] The Cmax data were from clinical trials which used FDA recommend dosages, route of administration, and duration. […] The final concentration of DMSO for drug treatment was always 0.1%, and control treatments were 0.1% DMSO.

[12] = system: isolated rat liver mitochondria; assay: Mitochondrial ROS production (CM-H2DCFDA); details: highest tested concentrations
[13] = up to 100-fold Cmax or highest testable concentration

C#Cc1cccc(Nc2ncnc3cc(OCCOC)c(OCCOC)cc23)c1 [Erlotinib]
RCC activity I ([1]; 10-fold Cmax): 90.62 ± 2.87 % of control | RCC activity III ([2]; 10-fold Cmax): 103.11 ± 12.25 % of control | RCC activity IV ([3]; 10-fold Cmax): 98.77 ± 4.53 % of control | RCC activity V [4]: 83.52 ± 2.96 % of control | lowest concentration inhibiting RCCs [5]: 10 fold Cmax | Cmax [6]: 3.44 µM | labeling for DILI ([7]; in vivo): W&P: fatal DILI | DILI potential (based on labeling) ([7]; ref FDA product labeling): 1

CNC(=O)c1cc(Oc2ccc(NC(=O)Nc3ccc(Cl)c(C(F)(F)F)c3)cc2)ccn1 [Sorafenib]
Glutamate/malate driven respiration State 3 ([8]; 1-fold Cmax): 1.15 ± 0.09 | Glutamate/malate driven respiration State 4 ([8]; 1-fold Cmax): 2.55 ± 0.27 | Succinate-driven respiration State 3 ([8]; 1-fold Cmax): 1.00 ± 0.10 | Succinate-driven respiration State 4 ([8]; 1-fold Cmax): 1.50 ± 0.21 | Glutamate/malate driven respiration State 3 ([8]; 2.5-fold Cmax): 1.57 ± 0.06 | Glutamate/malate driven respiration State 4 ([8]; 2.5-fold Cmax): 4.92 ± 0.09 | Succinate-driven respiration State 3 ([8]; 2.5-fold Cmax): 0.62 ± 0.05 | Succinate-driven respiration State 4 ([8]; 2.5-fold Cmax): 1.43 ± 0.06 | Glutamate/malate driven respiration State 4 ([8]; 5-fold Cmax): 3.69 ± 0.12 | Succinate-driven respiration State 3 ([8]; 5-fold Cmax): 0.40 ± 0.01 | Succinate-driven respiration State 4 ([8]; 5-fold Cmax): 1.03 ± 0.08 | Glutamate/malate driven respiration State 3 ([8]; 10-fold Cmax): 0.93 ± 0.34 | Glutamate/malate driven respiration State 4 ([8]; 10-fold Cmax): 5.00 ± 1.92 | Succinate-driven respiration State 3 ([8]; 10-fold Cmax): 1.03 ± 0.19 | Succinate-driven respiration State 4 ([8]; 10-fold Cmax): 3.34 ± 0.45 | effect on state 4 respiration ([8]; highest tested concentrations): significant increases | lowest concentration significantly affecting mitochondrial oxygen consumption ([8]; tested at 1 to 100-fold Cmax): equal to Cmax | RCC activity I ([1]; 5-fold Cmax): 87.23 ± 10.61 % of control | RCC activity I ([1]; 10-fold Cmax): 85.45 ± 11.93 % of control | RCC activity III ([2]; 5-fold Cmax): 97.60 ± 5.50 % of control | RCC activity III ([2]; 10-fold Cmax): 94.31 ± 7.47 % of control | RCC activity IV ([3]; 5-fold Cmax): 101.55 ± 3.61 % of control | RCC activity IV ([3]; 10-fold Cmax): 107.65 ± 10.77 % of control | RCC activity V [4]: 65.55 ± 6.34 % of control | lowest concentration decreasing MMP [9]: onefold | effect on MMP [9, 13]: decrease in MMP | lowest concentration causing mitochondrial swelling [10]: 2.5 fold Cmax | effect on mitochondrial swelling ([10]; up to 100-fold Cmax or highest testable concentration, 25 µM calcium chloride): significant mitochondrial swelling | lowest concentration inhibiting RCCs [5]: fivefold | RCCs inhibited [5, 13]: RCC V | lowest concentration causing significant mitochondrial toxicity [11]: equal to the Cmax | Cmax [6]: 4.3 µM | labeling for DILI ([7]; W&P warnings and precautions, BBW black box warnings, ref FDA product labeling): W&P: fatal DILI | DILI potential (based on labeling) ([7]; ref FDA product labeling): 1 | effect on ROS production [12]: neither of them affected ROS production
